Values quoted from earlier work, collected in PubChem BioAssay AID1259409 (Chemical Carcinogenesis Research Information System (CCRIS), 2018).

Test system: rodent chemically induced tumor inhibition, incidence and multiplicity
Test: CCRIS tumor inhibitor studies

CC(C)Cn1c(=O)n(C)c(=O)c2[nH]cnc21
tumour outcome (control, treated, inhibition, significance) (Carcinogen: 7,12-DIMETHYLBENZ[A]ANTHRACENE, 57-97-6, Dose [Inhibitor]: 5 UMOL 2/WK FOR 48 WK APPLIED AT LEAST 5 MIN BEFORE AND TO SAME AREA OF SKIN AS EACH PROMOTER DOSE, STARTING 2 WK AFTER, Route [Inhibitor]: DERMAL, Species: MOUSE, Strain/Sex: CD-1/FEMALE, Target Tissue: Type of Lesion: SKIN: CARCINOMA, Dose [Carcinogen]: 0.1 UMOL ONCE 2 WK PRIOR TO FIRST DOSE OF INHIBITOR, Promoter: 12-O-TETRADECANOYLPHORBOL-13-ACETATE;16561-29-8): 35%, 19%, 46%, not calculated
tumour outcome (control, treated, inhibition, significance) (Carcinogen: 7,12-DIMETHYLBENZ[A]ANTHRACENE, 57-97-6, Dose [Inhibitor]: 5 UMOL 2/WK FOR 48 WK APPLIED AT LEAST 5 MIN BEFORE AND TO SAME AREA OF SKIN AS EACH PROMOTER DOSE, STARTING 2 WK AFTER, Route [Inhibitor]: DERMAL, Species: MOUSE, Strain/Sex: CD-1/FEMALE, Target Tissue: Type of Lesion: SKIN: PAPILLOMA, Dose [Carcinogen]: 0.1 UMOL ONCE 2 WK PRIOR TO FIRST DOSE OF INHIBITOR, Promoter: 12-O-TETRADECANOYLPHORBOL-13-ACETATE;16561-29-8): 100%, 82%, 18%, not calculated
tumour outcome (control, treated, inhibition, significance) (Carcinogen: 7,12-DIMETHYLBENZ[A]ANTHRACENE, 57-97-6, Dose [Inhibitor]: 5 UMOL APPLIED 2/WK THROUGHOUT THE STUDY AT LEAST 5 MIN BEFORE AND TO SAME AREA OF SKIN AS EACH DOSE OF PROMOTER STARTIN, Route [Inhibitor]: DERMAL, Species: MOUSE, Strain/Sex: CD-1/FEMALE, Target Tissue: Type of Lesion: SKIN: CARCINOMA, Dose [Carcinogen]: 0.1 UMOL APPLIED ONCE, Promoter: 12-O-TETRADECANOYLPHORBOL-13-ACETATE, 16561-29-8): 35%, 19%, 46%, not calculated
tumour outcome (control, treated, inhibition, significance) (Carcinogen: 7,12-DIMETHYLBENZ[A]ANTHRACENE, 57-97-6, Dose [Inhibitor]: 5 UMOL APPLIED 2/WK THROUGHOUT THE STUDY AT LEAST 5 MIN BEFORE AND TO SAME AREA OF SKIN AS EACH DOSE OF PROMOTER STARTIN, Route [Inhibitor]: DERMAL, Species: MOUSE, Strain/Sex: CD-1/FEMALE, Target Tissue: Type of Lesion: SKIN: PAPILLOMA, Dose [Carcinogen]: 0.1 UMOL APPLIED ONCE, Promoter: 12-O-TETRADECANOYLPHORBOL-13-ACETATE, 16561-29-8): 100%, 82%, 18%, not calculated
tumour outcome (control, treated, inhibition, significance) (Carcinogen: 7,12-DIMETHYLBENZ[A]ANTHRACENE, 57-97-6, Dose [Inhibitor]: 10 UMOL 1/WK FOR 30 WK APPLIED AT LEAST 5 MIN PRIOR TO EACH CARCINOGEN TREATMENT (STUDY DURATION: 30 WK), Route [Inhibitor]: DERMAL, Species: MOUSE, Strain/Sex: CD-1/FEMALE, Target Tissue: Type of Lesion: SKIN: CARCINOMA, Dose [Carcinogen]: 0.2 UMOL 1/WK FOR 30 WK, Promoter: NONE USED): 59%, 42%, 29%, not significant
tumour outcome (control, treated, inhibition, significance) (Carcinogen: 7,12-DIMETHYLBENZ[A]ANTHRACENE, 57-97-6, Dose [Inhibitor]: 10 UMOL 1/WK FOR 30 WK APPLIED AT LEAST 5 MIN PRIOR TO EACH CARCINOGEN TREATMENT (STUDY DURATION: 30 WK), Route [Inhibitor]: DERMAL, Species: MOUSE, Strain/Sex: CD-1/FEMALE, Target Tissue: Type of Lesion: SKIN: PAPILLOMA, Dose [Carcinogen]: 0.2 UMOL ONCE 1/WK FOR 30 WK, Promoter: NONE USED): 100%, 100%, 0%, not significant
tumour outcome (control, treated, inhibition, significance) (Carcinogen: 7,12-DIMETHYLBENZ[A]ANTHRACENE, 57-97-6, Dose [Inhibitor]: 10 UMOL APPLIED 1/WK THROUGHOUT THE STUDY AT LEAST 5 MIN BEFORE AND TO SAME AREA OF SKIN AS EACH APPLICATION OF CARCINOG, Route [Inhibitor]: DERMAL, Species: MOUSE, Strain/Sex: CD-1/FEMALE, Target Tissue: Type of Lesion: SKIN: CARCINOMA, Dose [Carcinogen]: 0.2 UMOL 1/WK FOR 30 WK, Promoter: NONE USED): 59%, 42%, 29%, not significant
tumour outcome (control, treated, inhibition, significance) (Carcinogen: 7,12-DIMETHYLBENZ[A]ANTHRACENE, 57-97-6, Dose [Inhibitor]: 10 UMOL APPLIED 1/WK THROUGHOUT THE STUDY AT LEAST 5 MIN BEFORE AND TO SAME AREA OF SKIN AS EACH APPLICATION OF CARCINOG, Route [Inhibitor]: DERMAL, Species: MOUSE, Strain/Sex: CD-1/FEMALE, Target Tissue: Type of Lesion: SKIN: PAPILLOMA, Dose [Carcinogen]: 0.2 UMOL 1/WK FOR 30 WK, Promoter: NONE USED): 100%, 100%, 0%, not significant
outcome (Carcinogen: 7,12-DIMETHYLBENZ[A]ANTHRACENE, 57-97-6, Dose [Inhibitor]: 10 UMOL APPLIED ONCE AT LEAST 5 MIN PRIOR TO CARCINOGEN DOSE (STUDY DURATION: 34 WK), Route [Inhibitor]: DERMAL, Species: MOUSE, Strain/Sex: CD-1/FEMALE, Target Tissue: Type of Lesion: SKIN: CARCINOMA, Dose [Carcinogen]: 3.6 UMOL ONCE, Promoter: NONE USED): 0%, 4%, not calculated

O=c1cc[nH]c(=O)[nH]1
tumour outcome (control, treated, inhibition, significance) (Carcinogen: 7,12-DIMETHYLBENZ[A]ANTHRACENE, 57-97-6, Dose [Inhibitor]: 1.5% IN 20% PROTEIN DIET (STUDY DURATION: 100 D), Route [Inhibitor]: ORAL, Species: RAT, Strain/Sex: STRAIN-CB/FEMALE, Target Tissue: Type of Lesion: MAMMARY GLAND: TUMOR, Dose [Carcinogen]: 15 MG IN 1 ML ARACHIS OIL 1/2 WK FOR 3 DOSES STARTING AT 30 D OF AGE, Promoter: NONE USED): 18/18 (100%), 18/21 (86%), 14%, not calculated
tumour outcome (control, treated, inhibition, significance) (Carcinogen: N-METHYL-N-NITROSOUREA, 684-93-5, Dose [Inhibitor]: 0, 3% IN DIET FOR 20 WK BEGINNING POST LAST CARCINOGEN DOSE (STUDY DURATION: 24 WK), Route [Inhibitor]: ORAL, Species: RAT, Strain/Sex: F344/MALE, Target Tissue: Type of Lesion: LUNG: ADENOMA, Dose [Carcinogen]: 20 MG/KG 2/WK FOR 4 WK, Promoter: NONE USED): 3/11 (27%), 0/9 (0%), 100%, not significant
tumour outcome (control, treated, inhibition, significance) (Carcinogen: N-METHYL-N-NITROSOUREA, 684-93-5, Dose [Inhibitor]: 0, 3% IN DIET FOR 20 WK BEGINNING POST LAST CARCINOGEN DOSE (STUDY DURATION: 24 WK), Route [Inhibitor]: ORAL, Species: RAT, Strain/Sex: F344/MALE, Target Tissue: Type of Lesion: THYROID: ADENOMA, CARCINOMA, Dose [Carcinogen]: 20 MG/KG 2/WK FOR 4 WK, Promoter: NONE USED): 6/11 (55%), 1/11 (10%), 82%, p>0.05

CC1=C[C@H]2[C@@]3(O)[C@H](C)C[C@]4(OC(=O)Cc5ccccc5)C([C@@H]3C=C(CO)C[C@]2(O)C1=O)C4(C)C (some centres undefined)
tumour outcome (control, treated, inhibition, significance) (Carcinogen: 7,12-DIMETHYLBENZ[A]ANTHRACENE, 57-97-6, Dose [Inhibitor]: 0, 2.14 NMOL 15 D POST INITIATION DOSE FOLLOWED BY 2.14 NMOL 2/WK DURING WK 3-22 APPLIED 15 MIN PRIOR TO EACH PROMOTION, Route [Inhibitor]: DERMAL, Species: MOUSE, Strain/Sex: CD-1/FEMALE, Target Tissue: Type of Lesion: SKIN: PAPILLOMA, Dose [Carcinogen]: 20 NMOL IN 200 µL ACETONE ONCE): 100%, 82%, 18%, not calculated
tumour outcome (control, treated, inhibition, significance) (Carcinogen: 7,12-DIMETHYLBENZ[A]ANTHRACENE, 57-97-6, Dose [Inhibitor]: 0, 2.14 NMOL 15 D POST INITIATION DOSE FOLLOWED BY 2.14 PMOL 2/WK DURING WK 3-22 APPLIED 15 MIN PRIOR TO EACH PROMOTION, Route [Inhibitor]: DERMAL, Species: MOUSE, Strain/Sex: CD-1/FEMALE, Target Tissue: Type of Lesion: SKIN: PAPILLOMA, Dose [Carcinogen]: 20 NMOL IN 200 µL ACETONE ONCE): 100%, 97%, 3%, not calculated
tumour outcome (control, treated, inhibition, significance) (Carcinogen: 7,12-DIMETHYLBENZ[A]ANTHRACENE, 57-97-6, Dose [Inhibitor]: 0, 2.14 NMOL 15 D POST INITIATION DOSE FOLLOWED BY 21.4 NMOL 2/WK DURING WK 3-22 APPLIED 15 MIN PRIOR TO EACH PROMOTION, Route [Inhibitor]: DERMAL, Species: MOUSE, Strain/Sex: CD-1/FEMALE, Target Tissue: Type of Lesion: SKIN: PAPILLOMA, Dose [Carcinogen]: 20 NMOL IN 200 µL ACETONE ONCE): 100%, 53%, 47%, not calculated
tumour outcome (control, treated, inhibition, significance) (Carcinogen: 7,12-DIMETHYLBENZ[A]ANTHRACENE, 57-97-6, Dose [Inhibitor]: 0, 2.14 NMOL 15 D POST INITIATION DOSE FOLLOWED BY 21.4 PMOL 2/WK DURING WK 3-22 APPLIED 15 MIN PRIOR TO EACH PROMOTION, Route [Inhibitor]: DERMAL, Species: MOUSE, Strain/Sex: CD-1/FEMALE, Target Tissue: Type of Lesion: SKIN: PAPILLOMA, Dose [Carcinogen]: 20 NMOL IN 200 µL ACETONE ONCE): 100%, 100%, 0%, not significant
tumour outcome (control, treated, inhibition, significance) (Carcinogen: 7,12-DIMETHYLBENZ[A]ANTHRACENE, 57-97-6, Dose [Inhibitor]: 0, 2.14 NMOL 15 D POST INITIATION DOSE FOLLOWED BY 214 PMOL 2/WK DURING WK 3-22 APPLIED 15 MIN PRIOR TO EACH PROMOTION D, Route [Inhibitor]: DERMAL, Species: MOUSE, Strain/Sex: CD-1/FEMALE, Target Tissue: Type of Lesion: SKIN: PAPILLOMA, Dose [Carcinogen]: 20 NMOL IN 200 µL ACETONE ONCE): 100%, 95%, 5%, not calculated
tumour outcome (control, treated, inhibition, significance) (Carcinogen: 7,12-DIMETHYLBENZ[A]ANTHRACENE, 57-97-6, Dose [Inhibitor]: 2.14 NMOL BEGINNING 15 D POST INITIATION DOSE AND EVERY THURS. AS WELL AS 21.4 NMOL 15 MIN PRIOR TO EACH PROMOTION DOSE, Route [Inhibitor]: DERMAL, Species: MOUSE, Strain/Sex: CD-1/FEMALE, Target Tissue: Type of Lesion: SKIN: PAPILLOMA, Dose [Carcinogen]: 20 NMOL IN 200 µL ACETONE ONCE): 100%, 65%, 35%, not calculated
tumour outcome (control, treated, inhibition, significance) (Carcinogen: 7,12-DIMETHYLBENZ[A]ANTHRACENE, 57-97-6, Dose [Inhibitor]: 2.14 NMOL BEGINNING 15 D POST INITIATION DOSE AND EVERY WED. AS WELL AS 21.4 NMOL 15 MIN PRIOR TO PROMOTION DOSE ON FRI., Route [Inhibitor]: DERMAL, Species: MOUSE, Strain/Sex: CD-1/FEMALE, Target Tissue: Type of Lesion: SKIN: PAPILLOMA, Dose [Carcinogen]: 20 NMOL IN 200 µL ACETONE ONCE): 98%, 50%, 49%, not calculated
